Test system: MDA-MB-231 cells
Assay: Effect of Taxol on HFFU-induced Ca2+ elevations (cell response index, CRI), live-cell calcium fluorescence imaging
Type: cell-based, human
Conditions: for normalized CRI (cell response index): 24 h treatment, HFFU stimulation, n=10, normalized to 0 nM = 1.0
Method: In order to perform live-cell fluorescence imaging of target cells stimulated by HFFU, a HFFU stimulation system was added to an inverted epifluorescence microscope (Olympus 1X70). In order to generate the highly focused ultrasound beam for single cell stimulation, a 200-MHz press-focused LiNbO3 transducer (fc: 200 MHz and bandwidth: 29%) was used. The transducer was constructed with conventional transducer fabrication procedures (Lam et al., 2013). The focal length of the transducer was 1.3 mm and the f-number (F#) was 1.6. The measured beam width of the highly focused ultrasound beam was 17 μm, which was close to the predicted value of 12 μm (=focal length×wavelength) and approximately the size of a breast cancer cell. In order to generate the 200-MHz ultrasound beam, 200-MHz sinusoidal bursts from a function generator (Stanford Research Systems, Sunnyvale, Calif.) fed into a 50-dB power amplifier (525LA, ENI, USA) were used to drive the transducer. The resultant peak-to-peak (Vpp) voltages of the bursts were adjusted to 4, 8, 16, and 32 V. The duty factor was tuned to 1%, and the pulse repetition frequency (PRF) was 1 kHz.
Live-cell fluorescence imaging was carried out on the epifluorescence microscope to monitor the cytoplasmic Ca^2+ elevations elicited by HFFU in individual MDA-MB-231, MCF-7, SKBR3, and BT-474 cells labeled with Fluo-4 AM. Light from a mercury lamp was delivered to the cells for excitation after passing through an electronic shutter, an excitation bandpass filter (488±20 nm), a dichroic mirror (cut-off wavelength: 500 nm), and a 20×objective. Fluorescence emitted from the cells was then collected by the same objective and recorded using a high-sensitivity CCD camera (ORCA-Flash2.8, Hamamatsu, Japan) after passing through an emission bandpass filter (530±20 nm).
Fluo-4 AM was used for live-cell calcium fluorescence imaging. 10^5 cells were plated on 35 mm Petri dishes and incubated in the complete medium at 37° C. for 36 h before […] Fluo-4 AM solution, diluted with the external buffer solution, was added to the dishes. After the cells were incubated at room temperature for 30 min, the cells were thoroughly washed with external buffer solution and then time-lapse fluorescence imaging was initiated after the target cells were positioned at the beam focus. Fluorescence images were acquired at 1 Hz for t=300 s (exposure time: 300 ms), as the HFFU was switched on and off at t=50 s and t=200 s, respectively.
The program was written to obtain the mean normalized maximum calcium elevation value and a cell responding ratio from segmented images of target cells, semi-automatically. A cell responding ratio=the number of cells responding to HFFU/the number of total cells subjected to HFFU. More specifically, after fluorescence images of cells acquired at different time-points (0-300 s, step: 1 s) were averaged, the target cell receiving HFFU in the averaged image was selected and segmented by Otsu's method (Otsu, 1979), followed by the calculation of mean fluorescence intensities in the segmented regions of each image obtained at the indicated time-points. Temporal changes of the mean fluorescence in the target cell were then analyzed to determine whether calcium elevations were elicited by HFFU in the cell. The calcium elevation was here measured as the increase in the fluorescence intensity. […]

SMILES: CC(=O)O[C@H]1C(=O)[C@@]2(C)[C@H]([C@H](OC(=O)c3ccccc3)[C@]3(O)C[C@H](OC(=O)[C@H](O)[C@@H](NC(=O)c4ccccc4)c4ccccc4)C(C)=C1C3(C)C)[C@]1(OC(C)=O)CO[C@@H]1C[C@@H]2O [Taxol]
- reduction of the CRI relative to the untreated cells (1 nM Taxol): −50%
- normalized CRI (cell response index) (1 nM Taxol): 0.52
- normalized CRI (cell response index) (10 nM Taxol): 0.29
- CRI remaining (reduced to) (100 nM Taxol): 0%
- normalized CRI (cell response index) (100 nM Taxol): 0
